The values that follow come from US5424290A, “Biologically active peptides and uses therefor” (Magainin Pharmaceuticals Inc., priority 1992, dated 1995).

Holding throughout (assay type): cell-based
Assay [1] deals with S. aureus strain ATCC 25923. Kind of assay: Minimal Inhibitory Concentration, microtiter broth dilution antibacterial assay. Conditions: S. aureus ATCC 25923; Mueller Hinton broth; 16-20 hours at 37° C.; lowest concentration giving a clear well. The text has this: (§1) Table I, which follows, indicates the Minimal Inhibitory Concentration (MIC) in μg/ml of Peptides (SEQ ID NO:1) through (SEQ ID NO:4), (SEQ ID NO:6) through (SEQ ID NO:13), (SEQ ID NO:16), (SEQ ID NO:20), (SEQ ID NO:21) and (SEQ ID NO:23) against S. aureus strain ATCC 25923, P. aeruginosa strain ATCC 27853, E. coli strain 25922, and Candida albicans. The procedure for the antibacterial assay is based upon the guidelines of the National Committee for Clinical Laboratory Standards, Document M7-T2, Volume 8, No. 8, 1988. Stock solutions of the peptides hereinabove mentioned are prepared at a concentration of 512 μg/ml in sterile deionized distilled water and stored at […]. Each peptide is a C-terminal amide and may or may not be acetylated at the N-terminus. An acetyl group at the N-terminus is indicated by an X. The stock peptide solution is diluted in serial dilutions (1:2) down the wells of a microtiter plate so that the final concentrations of peptides in the wells are 0.25, 0.50, 1, 2, 4, 8, 16, 32, 64, 128, and 256 μg/ml. 1-5×10^5 CFUs/ml of either S. aureus ATCC 25923, E. coli ATCC 25922, P. aeruginosa ATCC 27853, or Candida albicans were added to the wells in full strength Mueller Hinton broth (BBL 11443) from a mid-log culture. The inoculum is standardized spectrophotometrically at 600 nm and is verified by colony counts. The plates are incubated for 16-20 hours at 37° C., and the minimal inhibitory concentration (MIC) for each peptide is determined. Minimal inhibitory concentration is defined as the lowest concentration of peptide which produces a clear well in the microtiter plate.
On the technique in general: Dilution methods test growth across graded concentrations, often in twofold steps.

Assay [2] relates to Candida albicans. Kind of assay: Minimal Inhibitory Concentration, microtiter broth dilution assay. The note with it: Mueller Hinton broth, 16-20 hours at 37° C., lowest concentration giving a clear well.
Text: as §1

Assay [3] deals with P. aeruginosa strain ATCC 27853. Kind of assay: Minimal Inhibitory Concentration, microtiter broth dilution antibacterial assay. Conditions: P. aeruginosa ATCC 27853; Mueller Hinton broth; 16-20 hours at 37° C.; lowest concentration giving a clear well.
Text: as §1

Residues, ends and D or L forms follow the SMILES beside them.

`CC[C@H](C)[C@H](NC(=O)CNC(=O)[C@@H](N)CCSC)C(=O)NCC(=O)N[C@@H](CCCCN)C(=O)N[C@@H](Cc1ccccc1)C(=O)N[C@@H](CC(C)C)C(=O)N[C@@H](CCCCN)C(=O)N[C@@H](CCCCN)C(=O)N[C@@H](C)C(=O)N[C@@H](CCCCN)C(=O)N[C@@H](CCCCN)C(=O)N[C@@H](Cc1ccccc1)C(=O)NCC(=O)N[C@@H](CCCCN)C(=O)N[C@@H](C)C(=O)N[C@@H](Cc1ccccc1)C(=O)N[C@H](C(=O)N[C@@H](CCCCN)C(=O)N[C@H](C(=O)N[C@@H](CC(C)C)C(=O)N[C@@H](CCCCN)C(=O)N[C@@H](CCCCN)C(N)=O)[C@@H](C)CC)C(C)C` [(SEQ ID NO: 11)-NH2] (H-MGIGKFLKKAKKFGKAFVKILKK-NH2): the “Minimal Inhibitory Concentration S. aureus” value in assay [1] was found to be 64 µg/mL. Further, in assay [2], the “Minimal Inhibitory Concentration C. albicans” value was 64 µg/mL.
As to `CC[C@H](C)[C@H](NC(=O)CN)C(=O)NCC(=O)N[C@@H](CCCCN)C(=O)N[C@@H](Cc1ccccc1)C(=O)N[C@@H](CC(C)C)C(=O)N[C@@H](CCCCN)C(=O)N[C@@H](CCCCN)C(=O)N[C@@H](C)C(=O)N[C@@H](CCCCN)C(=O)N[C@@H](CCCCN)C(=O)N[C@@H](Cc1ccccc1)C(=O)NCC(=O)N[C@@H](CCCCN)C(=O)N[C@@H](C)C(=O)N[C@@H](Cc1ccccc1)C(=O)N[C@H](C(=O)N[C@@H](CCCCN)C(=O)N[C@H](C(=O)N[C@@H](CC(C)C)C(=O)N[C@@H](CCCCN)C(=O)N[C@@H](CCCCN)C(=O)N[C@@H](CC(N)=O)C(N)=O)[C@@H](C)CC)C(C)C` [(SEQ ID NO: 9)-NH2] (H-GIGKFLKKAKKFGKAFVKILKKN-NH2), in assay [3], the “Minimal Inhibitory Concentration P. aeruginosa” value stood at 8 µg/mL. Moreover, the “Minimal Inhibitory Concentration S. aureus” value in assay [1] was 64 µg/mL.
The like results for `CC[C@H](C)[C@H](N)C(=O)NCC(=O)N[C@@H](CCCCN)C(=O)N[C@@H](Cc1ccccc1)C(=O)N[C@@H](CC(C)C)C(=O)N[C@@H](CCCCN)C(=O)N[C@@H](CCCCN)C(=O)N[C@@H](C)C(=O)N[C@@H](CCCCN)C(=O)N[C@@H](CCCCN)C(=O)N[C@@H](Cc1ccccc1)C(=O)NCC(=O)N[C@@H](CCCCN)C(=O)N[C@@H](CCCCN)C(=O)N[C@@H](Cc1ccccc1)C(=O)N[C@@H](CCCCN)C(=O)N[C@@H](CCCCN)C(=O)N[C@@H](CCC(=O)O)C(=O)N[C@H](C(=O)N[C@@H](CCCCN)C(=O)N[C@@H](CCCCN)C(N)=O)[C@@H](C)CC` [(SEQ ID NO: 3)-NH2] (H-IGKFLKKAKKFGKKFKKEIKK-NH2) were, in that order, 16 µg/mL and 32 µg/mL.
For `CC[C@H](C)[C@H](NC(=O)CN)C(=O)NCC(=O)N[C@@H](CCCCN)C(=O)N[C@@H](Cc1ccccc1)C(=O)N[C@@H](CC(C)C)C(=O)N[C@@H](CCCCN)C(=O)N[C@@H](CCCCN)C(=O)N[C@@H](C)C(=O)N[C@@H](CCCCN)C(=O)N[C@@H](CCCCN)C(=O)N[C@@H](Cc1ccccc1)C(=O)NCC(=O)N[C@@H](CCCCN)C(=O)N[C@@H](C)C(=O)N[C@@H](Cc1ccccc1)C(=O)N[C@H](C(=O)N[C@@H](CCCCN)C(=O)N[C@H](C(=O)N[C@@H](CC(C)C)C(=O)N[C@@H](CCCCN)C(=O)N[C@@H](CCCCN)C(N)=O)[C@@H](C)CC)[C@@H](C)CC` [(SEQ ID NO: 19)-NH2] (H-GIGKFLKKAKKFGKAFIKILKK-NH2) the same measures were 8 µg/mL and 8 µg/mL.
